“Also recorded” adds a separate entry of the source.
Columns and labels:
KM12SM cells [1] = assay: IL-13-triggered migration (wound healing) assay; type: cell-based, human; conditions: IL-13, Claramine 2 μM, trifluoroacetate salt
Experimental: (§1) FIG. 5. […] B) KM12SM cells were subjected to cell adhesion. C) KM12SM and U87MG cells were subjected to MTT assays. The three cell lines were subjected to D) migration and E) invasion assays. All the experiments were done in the presence or absence of IL-13, Claramine and/or anti-IL13Rα2 blocking antibodies.
(§2) Adhesion, wound healing and invasion assays have been previously reported.
(§3) Next, the effect of the PTP1B inhibitor Claramine on the pro-invasive effects of IL-13 was investigated. First, the cellular toxicity of Claramine was studied at different doses. Claramine at 5 μM caused around 50% decrease in cell survival, but had no effect at 2 μM, which was used in the remaining experiments (data not shown). […] The effects of Claramine on cell adhesion, migration, invasion, and, to a minor extent, proliferation mimicked the effects of PTP1B silencing in the three types of cancer cells (FIG. 5 B-E).

A2780 cells [2] = assay: IL-13-triggered migration (wound healing) assay; type: cell-based, human; conditions: A2780, IL-13, Claramine 2 μM; trifluoroacetate salt
Experimental: as §1, §2, §3

U87MG cells [3] = assay: IL-13-triggered migration (wound healing) assay; type: cell-based, human; conditions: IL-13, Claramine 2 μM, trifluoroacetate salt
Experimental: as §1, §2, §3

KM12SM cells [4] = assay: MTT proliferation assay with IL-13; type: cell-based, human; conditions: IL-13, Claramine 2 μM
Experimental: as §1
(§4) Proliferation assays have been previously described. To assess cell survival to oxidative stress, 10^4 cells were seeded per well on 96-well plates and incubated for 24 h in DMEM containing 1% serum in presence of 1 mM H2O2, followed by 1 h incubation with MTT. Cell viability was determined by A560 nm and compared with untreated cells.
as §3

U87MG cells [5] = assay: MTT proliferation assay with IL-13; type: cell-based, human; conditions: IL-13, Claramine 2 μM
Experimental: as §1, §4, §3

U251 cells [6] = assay: GBM subcutaneous xenograft tumor growth; type: in vivo, NSG mice
Experimental: (§5) FIGS. 7A-7E show PTP1B inhibition increases survival in CRC and glioblastoma mouse models. […] Murine β-actin amplification was used as a loading control.
(§6) For GBM xenografts, NSG mice were subcutaneously inoculated with U251 cells. Then, mice were treated intraperitoneally with 7 doses of Claramine (every three days) starting day 15 after implantation (a total of 2 mg/kg of body weight). The size of subcutaneous tumors was measured every 2 days. After euthanasia, tumors were isolated and the extracts subjected to Western blot analysis to determine IL13Rα2 and PTP1B activation. Liver homing and metastasis experiments in Swiss nude mice have been described. For CRC metastasis, mice were treated with the same dose of Claramine as above. Animals were weighed to study the effects on food intake and tolerance to the treatment.
Next, the in vivo effect of Claramine on GBM tumor growth and intracranial inoculation was investigated. First, mice were subcutaneously inoculated with U251 cells and xenografts were allowed to grow for 15 days before starting i.p. treatment with Claramine (FIG. 7C). Tumors in treated mice stop growing for the duration of the treatment when compared with non-treated mice. […] In addition, the involvement of IL13Rα2 and PTP1B in the tumor growth was studied using xenograft tissues. A significant increase of PTP1B phosphorylation (3-5 times) in vivo compared to cells in culture was found. […] An increased expression of IL13Rα2 in the xenografts was also noticed.

KM12SM cells [7] = assay: IL-13-induced cell adhesion to Matrigel; type: cell-based, human; conditions: IL-13 10 ng/ml, Claramine 2 μM, trifluoroacetate salt
Experimental: as §1, §2, §3

GBM12 PDX = assay: intracranial model of GBM; type: in vivo, athymic nude mice
From the text: as §5
For intracranial experiments, athymic nude male mice were purchased from Jackson Laboratories. All experiments were approved by the Northwestern University Institutional Animal Care and Use Committee (IACUC). For the intracranial implantation of cannula and tumor cells, 6-8 weeks old […] mice were first anesthetized with a ketamine HCl (25 mg/ml)/xylazine (2.5 mg/ml) cocktail. A previously established surgical procedure was utilized in this study with a small variation reflecting the cannula implantation. For that, a custom-made 26 gauge sterile guide cannula (Plastics One, Roanoke, VA) was installed into the brain through a burr hole at 2 mm depth and secured with tissue glue (3M, St Paul, MN). For the glioma PDX cells implantation, a 33-gauge sterile syringe was inserted into the guide cannula at 3 mm depth following by infusion of 2.5 μl of 10^5 GBM12 cells. The skin incision was closed with surgical glue around the implantation site. The extracranial end of the cannula was then covered with a 33-gauge protection dummy cannula. The surgical procedure was followed with a standard post-surgery care according to the approved protocol. The intracranial injection of Claramine through cannula was done in 4 fractions for a total 4-8 mg/kg starting day 7 after tumor implantation and every 3 days after that. For systemic treatment, Claramine was delivered intravenously in 4 fractions for a total 8, 15 or 30 mg/kg starting day 7 after tumor implantation and every 3 days after that. Sterile 0.9% saline solution served as a negative control in all experiments.
Finally, an intracranial model of GBM using the GBM12 PDX that expresses high amounts of IL13Rα2 was tested. Tumors were implanted intracranially for seven days before starting the treatment with four doses of Claramine for a total of 4 mg/kg or 8 mg/kg (FIG. 7E). The median survival for the treated mice increased up to 36-39 days from 27 days of the control mice.

KM12SM cells [8] = assay: IL-13-triggered invasion assay; type: cell-based, human; conditions: IL-13, Claramine 2 μM, trifluoroacetate salt
Experimental: as §1, §2, §3

A2780 cells [9] = assay: IL-13-triggered invasion assay; type: cell-based, human; conditions: A2780, IL-13, Claramine 2 μM; trifluoroacetate salt
Experimental: as §1, §2, §3

U87MG cells [10] = assay: IL-13-triggered invasion assay; type: cell-based, human; conditions: IL-13, Claramine 2 μM, trifluoroacetate salt
Experimental: as §1, §2, §3

GBM cells = assay: 2-NBDG glucose uptake assay; type: cell-based, human; conditions: data not shown
Experimental: Flow cytometry was performed as previously described. For IL13Rα2 internalization assays, cells were starved for 3 h, detached with 2 mM EDTA, incubated 30 min with IL-13 at 37° C., primary and secondary antibodies for 30 min at 4° C. and analyzed in the cytofluorimeter as previously described. For glucose uptake determination, cells were incubated with IL-13 and/or Claramine and subjected to the assays using 2-NBDG glucose uptake assays kit (BioVision) according to manufacturer's instructions. Glucose uptake was quantified in the cytofluorimeter.
(§7) As PTP1B silencing or Claramine treatment might modulate glucose and energy homeostasis including insulin signaling, the effect of IL-13 on the glucose uptake and insulin signaling was also investigated. IL-13 increased the glucose uptake in GMB cells but not in CRC cells (data not shown). […] The phosphorylation of insulin receptor substrate 1 (IRS-1) in CRC and GBM cells treated with IL-13 and Claramine was then studied. A strong phosphorylation of IRS-1 in U251 cells treated with IL-13 was found. In contrast, phosphorylation of IRS-1 in KM12SM cells was much weaker, without differences after IL-13 addition. […] Together, these studies support that Claramine effect on tumor cells seems to be independent of the glucose homeostasis.

KM12SM cells [11] = assay: colorectal cancer liver metastasis model, intrasplenic inoculation; type: in vivo, Swiss nude mice
Experimental: as §5, §6
Finally, the in vivo effects of PTP1B silencing or inhibition in colorectal cancer and glioblastoma mouse models were investigated. Given the high homology between murine and human IL-13, it was hypothesized that it was unnecessary to treat the mice with exogenous human IL-13 (11). Fora further confirmation, human and murine IL-13 were compared in an invasion experiment. Both IL-13 promoted a similar pro-invasive capacity on human cancer cells (data not shown). Then, the effect of PTP1B silencing on the capacity for liver homing of KM12SM cells inoculated in the spleen of nude mice was examined. As a surrogate marker for homing, human GAPDH was detected in the livers of mice inoculated with control cells but not in those inoculated with PTP1B-silenced cells (FIG. 7A). Then, the effects of Claramine on mice survival in colorectal cancer metastasis were investigated. Forty-eight h after spleen inoculation with CRC cells, mice were treated intraperitoneally (i.p.) with Claramine for two weeks on alternate days, with a total dose of 49 μg/mouse.

[12] = type: cell-based; conditions: data not shown
Experimental: as §3

KM12SM cells [13] = assay: phosphorylation of insulin receptor substrate 1 (IRS-1); type: cell-based, human; conditions: KM12SM cells treated with IL-13 and Claramine
From the text: as §7

U251 cells [14] = assay: as above; type: cell-based, human; conditions: U251 cells treated with IL-13 and Claramine
From the text: as §7

KM12SM cells [15] = assay: Western blot of pSrc Y530 in IL-13-treated cells; type: cell-based, human; conditions: 2 μM Claramine, IL13-treated KM12SM
Experimental: as §1
(§8) Western blot assays were done as previously described.
as §3

A2780 cells [16] = assay: Western blot of pSrc Y530 in IL-13-treated cells; type: cell-based, human; conditions: 2 μM Claramine, IL13-treated A2780
Experimental: as §1, §8, §3

U87MG cells [17] = assay: Western blot of pSrc Y530 in IL-13-treated cells; type: cell-based, human; conditions: 2 μM Claramine, IL13-treated U87MG
Experimental: as §1, §8, §3

U251 GBM cells = assay: Western blot of EGF and IL-13 signaling (pEGFR Y1068, pPTP1B Y66, pSrc Y419); type: cell-based, human
Experimental: FIG. 6. […] (A) U251 cells were treated with EGF, IL-13 or both, with or without Claramine. Cell extracts were analyzed by western blot to detect pEGFR Y1068, pPTP1B Y66, and pSrc Y419. B) U251 cells silenced for EGFR, IL13Rα2 or control cellswere treated with EGF or IL-13 in the presence or absence of Claramine. Cells were lysed and whole extracts were analyzed by western blot to detect pEGFR Y1068, pPTP1B Y66 and pSrc Y419.
as §8
EGFR is a substrate of PTP1B and might cooperate with IL13Rα2 in GBM invasion. To determine whether PTP1B participates in the modulation of the EGFR pathway besides the IL13Rα2, the effect of Claramine on EGF and IL-13 signaling in GBM was investigated. […] PTP1B Tyr66 was also phosphorylated by EGF and IL-13, indicating the participation of PTP1B in both pathways.

[18] = MTT assay for survival to oxidative stress (IL-13 promoted cell survival); type: cell-based; conditions: data not shown
Experimental: as §4, §3

[19] = U251 cells silenced for EGFR, IL13Rα2 or control, FIG. 6B

With `CC(C)CCC[C@@H](C)[C@H]1CC[C@H]2[C@@H]3C[C@@H](NCCCNCCCCNCCCN)C4C[C@@H](O)CC[C@]4(C)[C@H]3CC[C@]12C.O=C(O)C(F)(F)F` (stereo partly drawn) [Claramine, (3β, 6β)-6-[[3-[[4-[(3-Aminopropyl)amino]butyl]amino]propyl]amino]-cholestan-3-ol trifluoroacetate salt] the cell migration (KM12SM cells [1]) was “inhibit”, the cell migration (A2780 cells [2]) was “inhibit” and the cell migration (U87MG cells [3]) was “inhibit”. The “proliferation (MTT)” value (KM12SM cells [4]) was “inhibited”, the “proliferation (MTT)” value (U87MG cells [5]) was “inhibited” and the “phosphorylation of PTP1B in xenograft tissues” value (U251 cells [6]; Western blot of tumor extracts) was “moderate inhibition”. For the same compound, the “toxicity / weight of the animals” value (U251 cells [6]; during i.p. treatment with Claramine, trifluoroacetate salt) was “remained constant; also recorded: No Claramine toxicity was observed”, the tumor growth (U251 cells [6]; i.p. treatment starting 15 days after implantation, 7 doses, total 2 mg/kg, trifluoroacetate salt) was “significantly inhibited; also recorded: stop growing; also recorded: regression” and the “IL-13-induced cell adhesion to Matrigel” value (KM12SM cells [7]) was “inhibited; also recorded: abolished”. For the same compound, the “mice survival (Kaplan-Meier), treated versus control” value (GBM12 PDX; GBM12 PDX intracranial, p<0.001, trifluoroacetate salt) was “significantly increased; also recorded: statistically significant difference in survival; also recorded: considerable increase”, the “survival up to” value (GBM12 PDX; four doses, total of 4 mg/kg or 8 mg/kg, from day 7) was 70-72 days post-inoculation and the median survival (GBM12 PDX; four doses, total of 4 mg/kg or 8 mg/kg, from day 7, control mice 27 days) was 36 to 39 days. For the same compound, the cell invasion (KM12SM cells [8]) was “inhibit”, the cell invasion (A2780 cells [9]) was “inhibit” and the cell invasion (U87MG cells [10]) was “inhibit”. The IL-13-increased glucose uptake (GBM cells) was “did not inhibit”, the “mice survival (Kaplan-Meier)” value (KM12SM cells [11]; KM12SM intrasplenic, p<0.001) was “significantly increased” and the “state of treated mice at sacrifice” value (KM12SM cells [11]; day 100 post-inoculation, total dose 49 μg/mouse i.p.) was “without symptoms of the disease, presence of metastatic nodes or weight loss”. The “protection against liver metastases” value (KM12SM cells [11]; i.p., two weeks on alternate days, total dose 49 μg/mouse, trifluoroacetate salt) was “complete protection; also recorded: complete inhibition”, the “effect on cell survival” value ([12]; Claramine at 2 μM) was “no effect” and the “decrease in cell survival” value ([12]; Claramine at 5 μM) was “around 50%”. The IRS-1 phosphorylation (KM12SM cells [13]) was “did not affect”, the IRS-1 phosphorylation (U251 cells [14]) was “did not affect” and the “phosphorylation of Src Tyr530” value (KM12SM cells [15]) was “preserved”. The “phosphorylation of Src Tyr530” value (A2780 cells [16]) was “preserved”, the “phosphorylation of Src Tyr530” value (U87MG cells [17]) was “preserved” and the EGFR activation (U251 GBM cells; [19]) was “suppressed”. For the same compound, the Src activation (U251 GBM cells; [19]) was “suppressed”, the “activation of EGFR (pEGFR Y1068) by EGF and IL-13” value (U251 GBM cells; U251 cells, FIG. 6A) was “inhibited” and the “activation of Src (pSrc Y419) by EGF and IL-13” value (U251 GBM cells; U251 cells, FIG. 6A) was “inhibited”. The “IL-13 promoted cell survival” value [18] was “significant reduction”.
